Data taken from US12569506B2, “Methods of treating osteonecrosis with LLP2A-bisphosphonate compounds” (The Regents of the University of California, priority 2016, dated 2026).
Entries after “also recorded” stand apart in the source; their conditions may differ.

Experiments:
[1] = tested on: dexamethasone-treated mice; assay: Empty lacunae density in distal femoral epiphysis, 90 day model; format: in vivo, BALB/c mice; conditions: day 90
Protocol: FIG. 8A-8B. Empty lacunae density of femurs from in dexamethasone-treated mice. Mice treated with placebo (PL), dexamethasone alone (Dex), Dex+250 μg/kg LLP2A-Ale, Dex+500 μg/kg LLP2A-Ale, or Dex+750 μg/kg LLP2A-Ale as described above for FIG. 7 were assessed for empty lacunae density within the distal femoral epiphysis region. Empty lacunae density was calculated by determining the number of empty lacunae in the entire distal femoral epiphysis region divided by the total number of osteocytes within the same region for each specimen. In the Dex only group, 75% of the samples had 10% or more empty lacunae, as compared to 44-62% of the samples in LLP2A-Ale-treated groups. A higher number of LLP2A-Ale 250 μg/kg, LLP2A-Ale 500 μg/kg, and LLP2A-Ale 750 μg/kg—treated samples had less than 10% empty lacunae as compared to Dex only treatment.
Both the right and left distal femurs were fixed in 10% neutral buffered formalin and were shaken for 3 days, then decalcified in 5% EDTA until the bones were fully decalcified. The specimens were then processed in ascending concentrations of ethanol and embedded in paraffin. Tissue sections were cut into 5 microns sections, stained with hematoxylin and eosin and evaluated for the presence of osteonecrosis by bright field microscopy at 20× magnification. […] Osteonecrosis was detected using modified criteria reported by Yang el al., (a mouse model for glucocorticoid-induced osteonecrosis: Effect of a steroid holiday. J Orthop Res. 2009; 27:169-75) which defines osteonecrosis as requiring all of the following changes: (1) empty lacunae, (2) pyknotic osteocyte nuclei in areas of empty lacunae and necrosis of adjacent bone marrow, (3) presence of excessive fat cells in the bone marrow, (4) cartilage degradation and (5) presence of fibrin thrombi in the blood vessels. In addition, trabecular bone volume, adipose volume, sinusoid volume and osteoblast surface at the distal femoral epiphyses were measured. Empty lacunae density was calculated by empty lacunae/total osteocytes within the entire distal femoral epiphysis region for each sample. […]

[2] = tested on: dexamethasone-treated mice; assay: 30 and 45 day prevention study: trabecular bone histology of distal femur epiphyses; format: in vivo, BALB/c mice
Protocol: The efficacy of LLP2A-Ale and hPTH (1-34) was evaluated over a 30 and 45 day study using a mouse model of glucocorticoid-induced osteonecrosis. Seven week-old male BALB/c mice were randomized into Placebo group (fresh water), glucocorticoid only (4 mg/L dexamethasone (Dex) in drinking water), Dex+250 μg/kg LLP2A-Ale, Dex+500 μg/kg LLP2A-Ale, or Dex+40 μg/kg hPTH (administered five times a week) for 30 or 45 days. At day 30 or 45, the mice were sacrificed. Study endpoints included histological evidence of osteonecrosis, bone mass, and prevalent blood vessels (CD31 and Endomucin expression) in the distal femur, and was performed as set forth in Example 2. Non-parametric Kruskal-Wallis tests were used to determine the differences between the groups.

osteocytes = assay: Cortical bone osteocyte apoptosis (TUNEL) in glucocorticoid-treated mice; format: in vivo; conditions: GC 56 days, one dose of LLP2A-Ale at day 28, sacrifice day 56, TUNEL (FIG. 5)
Protocol: FIG. 5. Cortical bone osteocyte apoptosis. Mice were treated with PL for 56 days, GC alone for 56 days or GC alone for 28 days, then GC plus one dose of LLP2A-Ale at day 28. Animals were sacrificed at day 56 and the percent of osteocytes that were apoptotic were measured.
Osteocytes die from loss of blood supply and also from glucocorticoid treatment. […] The animals were sacrificed at day 56, the bones were decalcified and then TUNEL assays were performed to determine the number of apoptotic osteocytes. Glucocorticoid treatment alone, at day 56 increased the number of osteocytes that were apoptotic.

Cc1ccccc1NC(=O)Nc1ccc(CC(=O)N[C@@H](CCCCNC(=O)/C=C/c2cccnc2)C(=O)N[C@@H](CCCC(=O)O)C(=O)NC2(C(=O)NCCOCCOCCNC(=O)CCC(=O)NCCOCCOCCNC(=O)CCC(=O)N[C@@H](CCCCNC(=O)[C@H](N)CSC3CC(=O)N(CC4CCC(C(=O)NCCCC(O)(P(=O)(O)O)P(=O)(O)O)CC4)C3=O)C(N)=O)CCCCC2)cc1 (some centres unmarked) [LLP2A-Ale]
Samples with less than 10% empty lacunae ([1]; LLP2A-Ale 250, 500, 750 μg/kg vs Dex only): more samples; also recorded: higher number | Samples with 10% or more empty lacunae ([1]; distal femoral epiphysis, Dex only vs LLP2A-Ale 250, 500, 750 μg/kg groups (FIG. 8A-B)): 44-62% | Trabecular bone volume ([2]; day 30 and 45, Dex vs placebo, treated vs Dex (p<0.05)): higher bone volume | Trabecular separation ([2]; vs Dex group, day 30 and 45 (p<0.05)): lower trabecular separation | Cortical bone osteocyte apoptosis (percent of osteocytes apoptotic) (osteocytes): prevented osteocyte apoptosis
